In patent US20250041387A1, “POLYPEPTIDE SEQUENCE OF KDM6B AND APPLICATION OF KDM6B IN REGULATING AND CONTROLLING FUNCTION OF MESENCHYMAL STEM CELL” (BEIJING STOMATOLOGICAL HOSPITAL, CAPITAL MEDICAL UNIVERSITY, priority 2021, published 2025):

Assays:
[1] = tested on: telomerase reverse transcriptase; experiment: ELISA assay of telomerase reverse transcriptase in SCAPs; type: cell-based, human; conditions: SCAPs treated with polypeptide, FIG. 8B
Description: • (1) Pre-detection preparation: A standard curve was calculated and plotted using a standard concentration gradient of 400 ng/mL, 200 ng/ml, 100 ng/ml, 50 ng/mL, 25 ng/ml, 12.5 ng/mL, 6.25 ng/mL, and 0 ng/mL. • (2) 100 μL of the standards and samples were added to each well of a 96-well plate. The plate was covered with a provided sealing film, and incubated at 37° C. for 2 hours. The name of the sample was noted on the surface of the sealing film. • (3) The sample in each well was discarded and spin-dried without washing. • (4) 100 μL of Biotin-antibody (1×) was added to each well. The plate was covered with a sealing film, and incubated at […] for 1 hour. If Biotin-antibody (1×) appeared cloudy, Biotin-antibody was warmed to room temperature and stirred gently until clear. • (5) The sample in each well was discarded. Each well was added with 200 μL of Wash Buffer using a multichannel pipette and left to stand for 2 minutes for washing. This process was repeated twice for a total of three times of washing. Complete removal of liquid at each step was critical for good performance. After the last time of washing, the Wash Buffer was discarded, and the 96-well plate was turned upside down and dried with a clean paper. • (6) 100 μL of HRP-avidin (1×) was added to each well. The 96-well microtiter plate was covered with a new sealing film and incubated at 37° C. for 1 hour. • (7) The process of discarding samples and washing in […] was repeated 5 times. • (8) 90 μL of TMB Substrate was added to each well. The plate was incubated in the dark at 37° C. for 15-30 minutes. 50 μL of Stop Solution was added to each well, and the plate was gently taped to mix solution evenly. • (9) The optical density of each well was detected at 450 nm within 5 min using a microtiter plate reader.

WDR5 synthetic protein = WDR5 synthetic protein (Homo sapiens, UniProt P61964); experiment: Polypeptide microarray of KDM6B incubated with biotin-labeled WDR5; type: binding; conditions: FIG. 3A, B; positive = optical density more than 30%
Description: • (1) Synthesis of polypeptide chip: A polypeptide chip was designed by overlapping and synthesized according to the sequence of KDM6B protein, with a total of two arrays. • (2) Synthesis of polypeptide microarray: A matrix membrane was activated, and placed on a fully automated polypeptide chip synthesizer. A Fmoc-amino acid solution was automatically transferred to a specific position on the activated membrane according to the set procedure, to react with the membrane. The membrane was immersed sequentially into the blocking solution I and II to block side chains, and washed with dimethyl formamide (DMF). The membrane was placed in a deprotection solution to remove the Fmoc protective group at the amino-terminal, then washed with DMF, and dried with ethanol. The above steps were repeated until all polypeptide microarrays were completely synthesized. After the synthesis was completed, the protective groups of the side chains were removed with specific organic reagents. […] The control group was incubated with the blocking solution. • (6) Streptavidin-HRP incubation: The reaction reagent Streptavidin-HRP (High Sensitivity Streptavidin-HRP (prod #21133)) was diluted with the blocking solution in an ratio of 1:10000, and then the polypeptide microarray chip was incubated with 5 ml of the diluted Streptavidin-HRP under shaking at room temperature for 2 hours, and washed. • (7) Color development: ECL luminescence reagent was added, and digital imaging was performed on a Chempchemi digital imager. • (8) Scan of polypeptide microarray chip and data analysis of color spot: The colored polypeptide microarray chip was imaged at 425 nm using the Chempchemi Imaging System with 200 s exposure. The optical density of colored spots was analyzed using TotalLab image analysis software, and the optical density of each colored spot was calculated using the “Spot Edge Average” algorithm in the software, with the optical density of the surrounding background of each colored spot as a reference. […]

[2] = tested on: stem cells from apical papilla; experiment: Alizarin red staining and calcium quantification in SCAPs; type: cell-based, human; conditions: SCAPs treated with polypeptide, 2 weeks of odontogenic induction, FIG. 8F, G
Description: (§1) Result of ALP activity was calculated according to Y/incubation time/protein concentration. • (3) Alizarin red staining • 1) After two weeks of osteogenic induction, the culture medium was discarded. The cells were washed three times with PBS pre-cooled at 4° C., and fixed with 70% ethanol at 4° C. for 1 hour. • 2) The cells were washed 2 times with double distilled water, and stained with 40 mM alizarin red solution (pH 4.2) at room temperature for 10 minutes. The staining was observed by naked eyes. • 3) The cells were washed 3 times with double-distilled water. • (4) Determination of Ca^2+ concentration
(§2) To quantitatively determine the concentration of calcium, the cells were added with 10% cetyl pyridinium chloride for dissolution for 30 minutes at room temperature. The OD value was measured at 562 nm using a spectrophotometer, and the calcium ion concentration of the samples was calculated according to the standard curve of calcium ion concentration, with the total protein concentration as an internal reference.

[3] = tested on: senescent bone marrow mesenchymal stem cells; experiment: Alizarin red staining and calcium quantification in senescent BMSCs of aged mice; type: cell-based, C57BL/6 mice; conditions: 2 weeks of osteogenic induction, FIG. 5C, D
Description: as §1, §2

Substance | expression of telomerase reverse transcriptase (ELISA) [1] | expression of telomerase reverse transcriptase (ELISA) ([1]; listed as 114 peptide) | binding degree to WDR5 on polypeptide microarray (optical density of spots) (WDR5 synthetic protein) | mineralization capacity, quantification of calcium ion [2] | mineralization capacity, quantification of calcium ion ([2]; listed as 114 peptide) | mineralization capacity, quantification of calcium ion [3] | mineralization capacity, quantification of calcium ion ([3]; listed as 114 peptide) | mineralization capacity, quantification of calcium ion ([2]; listed as 102 peptide) | mineralization capacity, quantification of calcium ion ([3]; listed as 102 peptide)
FITC-(Acp)-ADLTISHCAADVVRAYGRKKRRQRRR [peptide 114] | promoted the expression | 0.05168 | higher binding degree | significantly higher | 1.619 | significantly higher | 1.251 | – | –
FITC-(Acp)-KEKSRRVLGNLDLQSYGRKKRRQRRR [peptide 102] | 0.03331 | – | higher binding degree | significantly higher | – | significantly higher | – | 1.637 | 1.154
